Values after ≈ are worked out from the molar mass of the structure shown.
Columns and labels:
[1] = Peptide hydrophobicity by RP-HPLC retention time; assay type: physicochemical; conditions: RP-HPLC retention time at pH 2, 25° C.
Protocol: Column: Zorbax 300 SB-C8, 150×2.1 mm ID, 5-μm particle size, 300-Å pore size; conditions, linear AB gradient (0.25% acetonitrile/min) at a flow-rate of 0.3 ml/min, where eluent A was 20 mM aq. TFA and eluent B was 20 mM TFA in acetonitrile and the temperature was 25° C. The sequences of the ten peptides (with seven peptides containing Lys specificity determinants at positions 13 and 16 of the non-polar face (see FIG. 1) are shown in Table 1G. Peptide denotions in FIG. 4 have been abbreviated from those shown in Table 1G; for example, D87(Lys1-6 Arg-1) has been shortened to D87(6 Arg-1). For the peptides without specificity determinants, we have added A13/A16 to the peptide denotions. It is interesting that the Dab containing peptides are more hydrophilic than the Dap containing peptides even thought the Dab containing peptides have an additional carbon atom per Dab residue.
Retention behavior in reversed-phase chromatography is an excellent method to represent overall peptide hydrophobicity. […] All ten peptides used in this study could be readily separated by reversed-phase chromatography with the seven peptides with specificity determinants being much more hydrophilic than the three control peptides without specificity determinants (FIG. 4). […]

[2] = system: Acinetobacter baumannii strains resistant to Polymyxin B and Colistin; conditions: for MICGM: geometric mean of MIC values from seven strains resistant to Polymyxin B and Colistin; for MIC MB9941: strain MB9941; for MIC MB9941 / MIC MB9949 / MIC MB9951 / MIC MB9952 / MIC MB9953 / MIC MB9955 / MIC MB9963: Mueller-Hinton medium, 37° C., 24 h; for MIC MB9949: strain MB9949; for MIC MB9951: strain MB9951; for MIC MB9952: strain MB9952; for MIC MB9953: strain MB9953; for MIC MB9955: strain MB9955; for MIC MB9963: strain MB9963

CC(=O)N[C@H](CCCCN)C(=O)N[C@H](CC(C)C)C(=O)N[C@H](CCN)C(=O)N[C@H](CO)C(=O)N[C@H](CC(C)C)C(=O)N[C@H](CC(C)C)C(=O)N[C@H](CCN)C(=O)N[C@@H](C(=O)N[C@H](CC(C)C)C(=O)N[C@H](CO)C(=O)N[C@H](CCN)C(=O)N[C@H](C)C(=O)N[C@H](C)C(=O)N[C@H](C)C(=O)N[C@H](C)C(=O)N[C@H](C)C(=O)N[C@H](CC(C)C)C(=O)N[C@H](CCN)C(=O)N[C@@H](C(=O)N[C@H](CC(C)C)C(=O)N[C@H](CC(C)C)C(=O)N[C@H](CCN)C(=O)N[C@H](C)C(=O)N[C@H](CC(C)C)C(=O)N[C@H](CO)C(=O)N[C@H](CCN)C(N)=O)[C@H](C)O)[C@H](C)O [D86(K13A/K16A)-(Lys^1-6Dab-1), Ac-KL(Dab)SLL(Dab)TLS(Dab)AAAAAL(Dab)TLL(Dab)ALS(Dab)-amide]
Hydrophobicity pH 2 tR [1]: 158.3 min
MICGM [2]: 0.9 µM
MIC MB9941 [2]: 1.5 µM (≈ 3.87 µg/mL)
MIC MB9949 [2]: 0.8 µM (≈ 2.07 µg/mL)
MIC MB9951 [2]: 0.8 µM (≈ 2.07 µg/mL)
MIC MB9952 [2]: 0.8 µM (≈ 2.07 µg/mL)
MIC MB9953 [2]: 0.8 µM (≈ 2.07 µg/mL)
MIC MB9955 [2]: 0.8 µM (≈ 2.07 µg/mL)
MIC MB9963 [2]: 0.8 µM (≈ 2.07 µg/mL)

CC(=O)N[C@H](CCCCN)C(=O)N[C@H](CC(C)C)C(=O)N[C@H](CN)C(=O)N[C@H](CO)C(=O)N[C@H](CC(C)C)C(=O)N[C@H](CC(C)C)C(=O)N[C@H](CN)C(=O)N[C@@H](C(=O)N[C@H](CC(C)C)C(=O)N[C@H](CO)C(=O)N[C@H](CN)C(=O)N[C@H](C)C(=O)N[C@H](C)C(=O)N[C@H](C)C(=O)N[C@H](C)C(=O)N[C@H](C)C(=O)N[C@H](CC(C)C)C(=O)N[C@H](CN)C(=O)N[C@@H](C(=O)N[C@H](CC(C)C)C(=O)N[C@H](CC(C)C)C(=O)N[C@H](CN)C(=O)N[C@H](C)C(=O)N[C@H](CC(C)C)C(=O)N[C@H](CO)C(=O)N[C@H](CN)C(N)=O)[C@H](C)O)[C@H](C)O [D105(K13A/K16A)-(Lys^1-6Dap-1), Ac-KL(Dap)SLL(Dap)TLS(Dap)AAAAAL(Dap)TLL(Dap)ALS(Dap)-amide]
Hydrophobicity pH 2 tR [1]: 172.3 min
MICGM [2]: 1.3 µM
MIC MB9941 [2]: 1.6 µM (≈ 4 µg/mL)
MIC MB9949 [2]: 0.8 µM (≈ 2 µg/mL)
MIC MB9951 [2]: 0.8 µM (≈ 2 µg/mL)
MIC MB9952 [2]: 1.6 µM (≈ 4 µg/mL)
MIC MB9953 [2]: 1.6 µM (≈ 4 µg/mL)
MIC MB9955 [2]: 1.6 µM (≈ 4 µg/mL)
MIC MB9963 [2]: 1.6 µM (≈ 4 µg/mL)
